Assay results: patent publication US9115149B2, “Heterocyclic compounds as inhibitors of fatty acid biosysnthesis for bacterial infections” (Vitas Pharma Research Private Limited, priority 2011, dated 2015)
In brackets after ≈: the same amount, converted by molar mass. Read-outs that look alike come from different tables or passages of the source.

What was measured:
[1] = system: Staphylococcus aureus (ATCC29213); assay: MIC by microbroth dilution, methicillin sensitive S. aureus; format: cell-based; conditions: read-out: Minimum inhibitory concentration (MIC) Staphylococcus aureus (ATCC29213)
Method: (§1) Shown below are the biological activities of representative compounds of the invention. The compounds were tested by the microbroth dilution method (National committee for Clinical Laboratory Standards, M07-A8, Volume 29, 2009) to determine the Minimum Inhibitory Concentration (MIC) against Methicillin sensitive and resistant Staphylococcus aureus. The MICs in the presence of 10% BSA was also tested. Further, select compounds were tested for metabolic stability using mouse liver microsomes based on published protocols (Journal of Biological Sciences, 2008, 8, 1110-1114).

[2] = system: Bacillus subtilis (ΔFabI, ΔFabL; Pxylose SaFabI); assay: Target specificity: MIC in B. subtilis expressing S. aureus FabI under xylose inducible promoter; format: cell-based
Method: To test for target specificity, the MIC was determined in a Bacillus subtilis strain in which the two FabI homologues (FabI and FabL) were deleted and replaced with S. aureus FabI (Sa FabI) under a Xylose inducible promoter. By varying the amount of xylose in the growth medium, the expression of FabI was proportionately modified. Compounds specifically targeting Sa FabI show an increased MIC when higher amounts of FabI are present in the cell (high Xylose concentrations). In contrast, when FabI levels are low, the cell becomes hypersusceptible, reducing the MIC (low Xylose concentrations). […] Shown below are data for target specificity.

[3] = system: Methicillin resistant Staphylococcus aureus (ATCC 33591); assay: MIC by microbroth dilution, methicillin resistant S. aureus; format: cell-based; conditions: ATCC33591, read-out: Minimum inhibitory concentration (MIC) Methicillin resistant Staphylococcus aureus (ATCC 33591)
Method: as §1

[4] = Metabolic stability in mouse liver microsomes; format: in vitro ADME
Method: as §1

[5] = Pharmacokinetic profile in male Swiss albino mice; conditions: mouse, in vivo; for AUC / Cmax / clearance / half-life: intravenous single dose 5 mg/kg body weight; for bioavailability: po
Method: The following compounds were dosed to male Swiss albino mice to determine the pharmacokinetic profiles.

[6] = system: Methicillin resistant Staphylococcus aureus (ATCC 33591); assay: MIC in the presence of BSA; format: cell-based; conditions: ATCC33591, 10% BSA
Method: as §1

[7] = read-out: MIC in the presence of 0.005% Xylose (low Xylose concentration)
[8] = read-out: MIC in the presence of 0.5% Xylose (high Xylose concentration)

Structure (SMILES)	MIC [1]	MIC [2, 7]	MIC [2, 8]	MIC [3]	Metabolic stability (mouse liver microsomes) % of compound remaining after 30 minutes [4]	AUC [5]	Cmax [5]	clearance [5]	half-life [5]	bioavailability [5]	MIC [6]
CNc1n[nH]c2ncc(/C=C/C(=O)N(C)Cc3cc4ccccc4n3C)cc12 [VT-02-00036, (E)-N-Methyl-3-(3-methylamino-1H-pyrazolo[3,4-b]pyridin-5-yl)-N-(1-methyl-1H-indol-2-ylmethyl)-acrylamide]	8000 ng/mL (≈ 21.4 µM)	500 ng/mL	2000 ng/mL	8000 ng/mL (≈ 21.4 µM)							
CN(Cc1cc2ccccc2n1C)C(=O)/C=C/c1cnc2[nH]nc(N(C)C)c2c1 [VT-02-00039, (E)-3-(3-Dimethylamino-1H-pyrazolo[3,4-b]pyridin-5-yl)-N-methyl-N-(1-methyl-1H-indol-2-ylmethyl)-acrylamide]	2000 ng/mL (≈ 5.15 µM)	60 ng/mL	1000 ng/mL	2000 ng/mL (≈ 5.15 µM)	46%	908 ng·h/mL	868 ng/mL	91.5 mL/min/kg	46.2 min	19%	
CN(Cc1cc2ccccc2n1C)C(=O)/C=C/c1cnc2[nH]c(=O)n(C)c2c1 [VT-02-00043, (E)-N-Methyl-N-(1-methyl-1H-indol-2-ylmethyl)-3-(1-methyl-2-oxo-2,3-dihydro-1H-imidazo[4,5-b]pyridin-6-yl)-acrylamide]	4000 ng/mL (≈ 10.7 µM)	7.8 ng/mL	30 ng/mL	8000 ng/mL (≈ 21.3 µM)							
COc1n[nH]c2ncc(/C=C/C(=O)N(C)Cc3cc4ccccc4n3C)cc12 [VT-02-00046, (E)-3-(3-Methoxy-1H-pyrazolo[3,4-b]pyridin-5-yl)-N-methyl-N-(1-methyl-1H-indol-2-ylmethyl)-acrylamide]	> 32000 ng/mL	> 32000 ng/mL	> 32000 ng/mL	> 32000 ng/mL							
CCn1c(=O)[nH]c2ncc(/C=C/C(=O)N(C)Cc3cc4ccccc4s3)cc21 [VT-02-00049, (E)-N-(benzo[b]thiophen-2-ylmethyl)-3-(1-ethyl-2-oxo-2,3-dihydro-1H-imidazo[4,5-b]pyridin-6-yl)-N-methylacrylamide]	500 ng/mL (≈ 1.27 µM)	0.48 ng/mL	31 ng/mL	500 ng/mL (≈ 1.27 µM)	44%						
CN(Cc1cc2ccccc2n1C)C(=O)/C=C/c1cnc2c(c1)C(C)(C)C(=O)N2 [VT-02-00055, (E)-3-(3,3-dimethyl-2-oxo-2,3-dihydro-1H-pyrrolo[2,3-b]pyridin-5-yl)-N-methyl-N-((1-methyl-1H-indol-2-yl)methyl)acrylamide]	250 ng/mL (≈ 0.644 µM)	60 ng/mL	2000 ng/mL	250 ng/mL (≈ 0.644 µM)	40.3%						2000 ng/mL
CCC1(CC)C(=O)Nc2ncc(/C=C/C(=O)N(C)Cc3cc4ccccc4n3C)cc21 [VT-02-00064, (E)-3-(3,3-diethyl-2-oxo-2,3-dihydro-1H-pyrrolo[2,3-b]pyridin-5-yl)-N-methyl-N-((1-methyl-1H-indol-2-yl)methyl)acrylamide]	120 ng/mL (≈ 0.288 µM)	30 ng/mL	250 ng/mL	120 ng/mL (≈ 0.288 µM)	18%	1400 ng·h/mL	1810 ng/mL	59.4 mL/min/kg	26.4 min	51.5%	1000 ng/mL
CN(Cc1cc2ccccc2s1)C(=O)/C=C/c1cnc2c(c1)C(C)(C)C(=O)N2 [VT-02-00066, (E)-N-(benzo[b]thiophen-2-ylmethyl)-3-(3,3-dimethyl-2-oxo-2,3-dihydro-1H-pyrrolo[2,3-b]pyridin-5-yl)-N-methylacrylamide]	500 ng/mL (≈ 1.28 µM)	7.8 ng/mL	1000 ng/mL	500 ng/mL (≈ 1.28 µM)	29%						4000 ng/mL
Cc1c(CN(C)C(=O)/C=C/c2cnc3c(c2)C(C)(C)C(=O)N3)sc2ccccc12 [VT-02-00069, (E)-3-(3,3-dimethyl-2-oxo-2,3-dihydro-1H-pyrrolo[2,3-b]pyridin-5-yl)-N-methyl-N-((3-methylbenzo[b]thiophen-2-yl)methyl)acrylamide]	15 ng/mL (≈ 0.037 µM)	0.2 ng/mL	15 ng/mL	15 ng/mL (≈ 0.037 µM)	10%						1000 ng/mL
CN(Cc1cc2ccccc2n1C)C(=O)/C=C/c1cnc2c(c1)C1(CCC1)C(=O)N2 [VT-02-00070, (E)-N-methyl-N-((1-methyl-1H-indol-2-yl)methyl)-3-(2′-oxo-1′,2′-dihydrospiro[cyclobutane-1,3′-pyrrolo[2,3-b]pyridine]-5′-yl)acrylamide]	500 ng/mL (≈ 1.25 µM)	< 0.000119 ng/mL	7.8 ng/mL	500 ng/mL (≈ 1.25 µM)	45%						2000 ng/mL
Cc1c(CN(C)C(=O)/C=C/c2cnc3c(c2)C2(CCCC2)C(=O)N3)sc2ccccc12 [VT-02-00074, (E)-N-methyl-N-((3-methylbenzo[b]thiophen-2-yl)methyl)-3-(2′-oxo-1′,2′-dihydrospiro[cyclopentane-1,3′-pyrrolo[2,3-b]pyridine]-5′-yl)acrylamide]	60 ng/mL (≈ 0.139 µM)	7.8 ng/mL	60 ng/mL	60 ng/mL (≈ 0.139 µM)	8%						1000 ng/mL
Cc1c(CN(C)C(=O)/C=C/c2cnc3c(c2)C2(CCCCC2)C(=O)N3)sc2ccccc12 [VT-02-00075, (E)-N-methyl-N-((3-methylbenzo[b]thiophen-2-yl)methyl)-3-(2′-oxo-1′,2′-dihydrospiro[cyclohexane-1,3′-pyrrolo[2,3-b]pyridine]-5′-yl)acrylamide]	500 ng/mL (≈ 1.12 µM)	< 0.00191 ng/mL	0.00763 ng/mL	500 ng/mL (≈ 1.12 µM)	5%						4000 ng/mL
CN(Cc1cn(C)c2ccccc12)C(=O)/C=C/c1ccc2c(c1)C1(CCC1)C(=O)N2 [VT-02-00085, (E)-N-methyl-N-((1-methyl-1H-indol-3-yl)methyl)-3-(2′-oxospiro[cyclobutane-1,3′-indoline]-5′-yl)acrylamide]	60 ng/mL (≈ 0.15 µM)	0.97 ng/mL	60 ng/mL	60 ng/mL (≈ 0.15 µM)	33%						1000 ng/mL
Cc1ccc2oc(CN(C)C(=O)/C=C/c3ccc4c(c3)C3(CCC3)C(=O)N4)c(C)c2c1 [VT-02-00086, (E)-N-((3,5-dimethylbenzofuran-2-yl)methyl)-N-methyl-3-(2′-oxospiro[cyclobutane-1,3′-indoline]-5′-yl)acrylamide]	500 ng/mL (≈ 1.21 µM)	60 ng/mL	500 ng/mL	500 ng/mL (≈ 1.21 µM)	26%						8000 ng/mL
Cc1c(CN(C)C(=O)/C=C/c2cnc3c(c2)C2(CCC2)C(=O)N3)oc2ccccc12 [VT-02-00092, (E)-N-methyl-N-((3-methylbenzofuran-2-yl)methyl)-3-(2′-oxo-1′,2′-dihydrospiro[cyclobutane-1,3′-pyrrolo[2,3-b]pyridine]-5′-yl)acrylamide]	60 ng/mL (≈ 0.149 µM)		3.9 ng/mL	60 ng/mL (≈ 0.149 µM)	22%						250 ng/mL
